The values below come from US10278971B2, “Fluorocyclopentenylcytosine methods of use” (Rexahn Pharmaceuticals, Inc., priority 2015, dated 2019).

One series deals with cytidine deaminase (CDA) (Homo sapiens, UniProt P32320). Conditions: cited from earlier work.
The test system of another series is MiaPaCa2. Nature of the series: Mice xenograft model, tumor growth inhibition. It counts as in vivo. Conditions: oral 500 mg/kg, TIWK. The source says:
(§1) A novel, orally bioavailable nucleoside analogue, RX-3117, is a prodrug activated intracellularly by Uridine Cytidine Kinase 2 (UCK2) that is thought to be expressed predominantly in tumor tissue. RX-3117 is currently being evaluated in a Phase Ib/IIa multi-center, open-label clinical study in patients with advanced pancreatic and bladder cancer. In this study, the relation between UCK2 tissue protein expression and the efficacy of RX-3117 in mice xenograft models and also UCK2 protein expression in a panel of human cancer tissues relative to normal tissue were studied.
(§2) The immunoblotting protein level of UCK2 normalized to beta-actin and corresponding tumor growth inhibition (oral RX-3117 dose of 500 mg/kg, TIWK) were 57 and 67% in MiaPaCa2, 30 and −5% in BxPC3, 199 and 92% in Colo-205, 21 and 90% in Caki-1, 2 and 39% in A549, and 146 and 79% in H460, respectively. […] Average H-Scores of UCK2 in cancer tissues vs. normal tissues were 104 vs. 9 in lung, 97 vs. 20 in bladder, 67 vs. 41 in pancreas and 39 vs. 21 in colon, respectively.

In another series the test system is BxPC3. Nature of the series: Mice xenograft model, tumor growth inhibition. The series is classed as in vivo. Particulars: oral 500 mg/kg, TIWK.
Source text: as §1, §2

The test system of the next series is A549. Nature of the series: Mice xenograft model, tumor growth inhibition. The series is classed as in vivo. Conditions: oral 500 mg/kg, TIWK.
Source text: as §1, §2

A further series deals with H460. As to the kind of experiment: Mice xenograft model, tumor growth inhibition. The series is classed as in vivo. Conditions: oral 500 mg/kg, TIWK.
Source text: as §1, §2

The next series has as its system Caki-1. As to the kind of experiment: Mice xenograft model, tumor growth inhibition. The series is classed as in vivo. Conditions: Caki-1 xenograft, oral 500 mg/kg, TIWK.
Source text: as §1, §2

For a further series, the system named is Colo-205. As to the kind of experiment: Mice xenograft model, tumor growth inhibition. It counts as in vivo. Particulars: Colo-205 xenograft, oral 500 mg/kg, TIWK.
Source text: as §1, §2

A further series deals with DNMT1. Nature of the series: DNMT1 protein expression by Western Blotting. The series is classed as cell-based, human. Particulars: for downregulation of DNMT1 protein expression: A549 and SW1573, 5-50 μM. As for the experimental part: The mechanism of cell cycle arrest was investigated by measuring cell cycle proteins expression using western blotting. The influence of RX-3117 on protein expression during different treatment conditions was analyzed by western blot. Cells were lysed using cell lysis buffer 1× (Cell Signaling, Danvers, Mass., USA) containing 4% protease inhibitor cocktail (Roche Diagnostics, Mannheim, Germany) on ice for 30 minutes and centrifuged for 10 minutes at 4° C. at 14,000 rpm. The protein containing supernatant was collected and the Bio-Rad assay was performed to determine protein amount as described in Lemos et al., Pharmacogenomics, 12(2):159-70 (2011). The following antibodies were used for protein expression: DNMT1 (Cell Signaling, 1:1000 #5032S), DNMT3A (Cell Signaling 1:1000 #2160S), DNMT3B (Abcam, 1; 1000), Chk2 (Cell Signaling 1:1000 #6334P), Chk1 (Cell Signaling 1:1000), p-CDC25C (Cell Signaling 1:1000 #4901S), Cdk1 (Cell Signaling 1:1000 #9112S), Cdk2 (Cell Signaling 1:1000 #2546S), wee1 (Cell Signaling 1:1000), 5139-γH2A.X (Cell Signaling, 1:1000), β actin (Sigma, 1:10,000), Caspase 9 (Cell Signaling, 1:1000), PARP (Roche 2003, 1:1000), p53 (Cell Signaling, 1:1000, #9282). The antibodies were diluted in 1:1 solution Rockland buffer (Rockland Inc., Philadelphia, Pa., USA) and PBS supplemented with 0.05% Tween® 20. The proteins were separated in 20% SDS-PAGE and transferred to a PVDF membrane. For fluorescent signal secondary antibodies goat anti-mouse InfraRedDye and goat anti-rabbit InfraRedDye were used. The proteins were detected by an Odyssey InfraRed Imager (Li-COR Bioscience, Lincoln, Nebr., USA).
DNMT1 protein expression was measured by Western Blotting after exposure to RX-3117 for 24 or 48 hr. DNMT1 RNA expression was measured by real-time PCR after 24 and 48 hr exposure to RX-3117. DNMT enzyme activity was measured in isolated nuclei after exposure 1 μM RX-3117 or 5 μM aza-CdR using a DNA methyltransferase assay kit provided by EpiGentek using the ability of a CpG dinding domain to bind to methylated DNA. In A549 cells the effect of 5 μM RX-3117 on overall methylation was measured with a specific antibody against 5-methyl-cytosine. Bands on Western blots were visualized using appropriate InfraRedDye using an Odyssey InfraRed imager.
(In general: A western blot detects proteins with antibodies after separation by electrophoresis.)

A value given as a limit tells only on which side of the number the result lay.

Sequence of cytidine deaminase (CDA) (P32320 whole entry, species assumed): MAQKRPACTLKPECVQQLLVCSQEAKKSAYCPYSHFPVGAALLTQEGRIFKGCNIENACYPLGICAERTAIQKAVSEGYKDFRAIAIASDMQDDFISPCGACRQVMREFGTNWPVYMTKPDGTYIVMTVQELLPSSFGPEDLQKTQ

In the case of `Nc1ccn([C@@H]2C(F)=C(CO)[C@@H](O)[C@H]2O)c(=O)n1` [RX-3117, 4-amino-1-((1S,4R,5S)-2-fluoro-4,5-dihydroxy-3-hydroxymethyl-cyclopent-2-enyl)-1H-pyrimidin-2-one], the “substrate for cytidine deaminase (CDA)” value at cytidine deaminase (CDA) (Peters et al. 2013) is on record as “poor substrate”. Besides, on cytidine deaminase (CDA) (compared with gemcitabine), the rate of deamination entry is “much slower than gemcitabine”. The tumor growth inhibition with MiaPaCa2 is 67%; with BxPC3 it was −5%; in the series on A549, 39%; in the series with H460 it was 79%; in the series with Caki-1, 90%; in the series on Colo-205, 92%. Also, the DNMT1 protein expression result is “down regulates” in the series on DNMT1 (A549, at higher dose (1-75 μM tested)) and “protein down regulation was already observed” with DNMT1 (A2780, 1 μM, 24 hr). Moreover, the entries for the “downregulation of DNMT1 protein expression” value in the series on DNMT1 (24 hour exposure) and in the series with DNMT1 (48 hr) were 5-20% and above 90%, respectively.
